Assay results reported in patent US8617906B2, “Identification and screening of triptolide target molecules” (priority 2004, dated 2013).

Legend:
[1] = biological target: T1, HSP 90β (PG771) (Homo sapiens, UniProt P08238); assay: Isolation of proteins binding 3H-triptolide in Jurkat cells (FPLC, 2D gel, fluorography, MALDI-MS); settings: 3H-labeled compound incubated with Jurkat cells
T1 construct: Jurkat cells from expanding cultures were labeled with; endogenous in cells; host or cells: Jurkat
T1 sequence (P08238 whole entry): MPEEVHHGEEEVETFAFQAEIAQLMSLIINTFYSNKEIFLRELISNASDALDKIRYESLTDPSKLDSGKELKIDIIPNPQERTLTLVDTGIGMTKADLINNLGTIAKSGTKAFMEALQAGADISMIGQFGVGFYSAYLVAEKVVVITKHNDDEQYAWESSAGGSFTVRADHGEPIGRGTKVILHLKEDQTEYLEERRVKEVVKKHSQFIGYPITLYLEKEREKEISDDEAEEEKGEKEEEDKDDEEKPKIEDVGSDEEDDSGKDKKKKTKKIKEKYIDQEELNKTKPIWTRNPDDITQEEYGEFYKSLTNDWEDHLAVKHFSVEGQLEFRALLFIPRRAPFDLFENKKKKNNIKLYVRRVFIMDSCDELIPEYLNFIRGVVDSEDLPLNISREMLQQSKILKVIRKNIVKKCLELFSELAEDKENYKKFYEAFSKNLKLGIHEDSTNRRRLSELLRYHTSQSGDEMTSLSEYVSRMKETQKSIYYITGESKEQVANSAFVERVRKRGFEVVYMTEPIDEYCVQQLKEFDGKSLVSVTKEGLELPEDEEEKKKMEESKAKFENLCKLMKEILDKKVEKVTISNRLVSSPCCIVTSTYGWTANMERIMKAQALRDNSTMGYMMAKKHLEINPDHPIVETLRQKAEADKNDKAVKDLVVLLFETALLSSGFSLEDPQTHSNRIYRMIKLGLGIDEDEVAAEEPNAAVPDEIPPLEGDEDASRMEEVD
Description: (§1) Triptolide target molecules were isolated and identified by purification and identification of molecules that bind ^3H-triptolide. Jurkat cells from expanding cultures were labeled with ^3H-triptolide by cultivation at 37° C. with 5% CO2 for a period of time between a few hours and overnight (usually 6-7 hours) and harvested by centrifugation and washing in ice-cold phosphate buffered saline. The cells (usually 1-3×10^6/ml) were generally labeled with ^3H-triptolide to a final concentration of 35 nM (100 μCi/200 ml of medium). […]
(§2) The cells were extracted with M-per buffer (Pierce) and homogenized in presence of a protease inhibitor cocktail, sometimes including other reagents such as deoxyribonuclease (DNase). […] When the extracts components were found not to be sufficiently purified, enriched or reduced in number, 2D gel electrophoresis was employed, followed by fluorography for ^3H-associated radioactivity detection, and MALDI/MS of the corresponding peptides (after proteolysis) and peptide fingerprinting. […]
(§3) MALDI-MS peptide fingerprinting analysis identified HSP 90β (PG771) in fraction #4 and L-plastin (PG772) in fraction #9. […] A positive spot on the film (fluorographically positive, therefore positive for ^3H-associated radioactivity) was seen near the 29 kDa protein marker. […]

[2] = biological target: T2, Vimentin (PG778) (Homo sapiens, UniProt P08670); assay: Isolation of proteins binding 3H-triptolide in Jurkat cells; settings: 3H-labeled Jurkat cell extract
T2 construct: endogenous in cells; host or cells: Jurkat
T2 sequence (P08670 whole entry): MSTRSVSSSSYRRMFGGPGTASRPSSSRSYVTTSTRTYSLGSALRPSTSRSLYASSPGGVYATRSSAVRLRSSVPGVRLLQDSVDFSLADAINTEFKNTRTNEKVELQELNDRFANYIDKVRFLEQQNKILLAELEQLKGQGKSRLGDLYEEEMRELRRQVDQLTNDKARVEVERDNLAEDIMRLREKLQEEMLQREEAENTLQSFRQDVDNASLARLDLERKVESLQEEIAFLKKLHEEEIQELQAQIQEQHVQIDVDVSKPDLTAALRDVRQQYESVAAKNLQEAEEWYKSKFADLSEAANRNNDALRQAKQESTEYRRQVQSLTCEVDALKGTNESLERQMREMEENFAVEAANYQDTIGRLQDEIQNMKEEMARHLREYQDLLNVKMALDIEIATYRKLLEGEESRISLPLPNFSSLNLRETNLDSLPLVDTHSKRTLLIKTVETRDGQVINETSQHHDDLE
Description: (§4) Triptolide target molecules were isolated and identified by purification and identification of molecules that bind ^3H-triptolide. Jurkat cells from expanding cultures were labeled with ^3H-triptolide by cultivation at 37° C. with 5% CO2 for a period of time between a few hours and overnight (usually 6-7 hours) and harvested by centrifugation and washing in ice-cold phosphate buffered saline. The cells (usually 1-3×10^6/ml) were generally labeled with ^3H-triptolide to a final concentration of 35 nM (100 μCi/200 ml of medium). Collected cell pellets were pooled, and the cells were either extracted and subjected to separation and purification at that time, or were frozen and stored at −20° C. as pellets for extraction and investigation at a later time.
as §2

[3] = system: IL-2; settings: cited from earlier work
[4] = biological target: T3, 14-3-3 ε (PG773) (Homo sapiens, UniProt P62258); assay: Isolation of proteins binding 3H-triptolide in Jurkat cells; settings: 3H-labeled compound incubated with Jurkat cells
T3 construct: endogenous in cells; host or cells: Jurkat
T3 sequence (P62258 whole entry): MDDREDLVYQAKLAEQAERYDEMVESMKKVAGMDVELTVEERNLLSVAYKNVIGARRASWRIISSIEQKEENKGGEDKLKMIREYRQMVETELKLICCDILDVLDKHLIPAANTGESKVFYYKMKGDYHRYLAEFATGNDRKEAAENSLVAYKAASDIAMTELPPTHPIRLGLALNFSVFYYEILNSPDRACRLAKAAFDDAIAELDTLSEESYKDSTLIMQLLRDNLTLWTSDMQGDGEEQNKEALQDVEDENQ
Description: as §1, §2, §3

[5] = system: Hypothetical Protein (GI 14758649), similar to heat shock protein (90 kDa) beta (PG787); assay: as above; design: species or system human; settings: 3H-labeled Jurkat cell extract
Description: as §4, §2

CC(C)[C@]12O[C@H]1[C@@H]1O[C@]13[C@]1(O[C@H]1C[C@H]1C4=C(CC[C@@]13C)C(=O)OC4)[C@@H]2O [triptolide]
3H-associated protein identified as triptolide target: HSP 90β [1]: identified
3H-associated protein identified as triptolide target: Vimentin [2]: identification
inhibition of IL-2 [3]: inhibition of IL-2
3H-associated protein identified as triptolide target: 14-3-3 ε [4]: identified
3H-associated protein identified as triptolide target: GI 14758649 [5]: identified
